Measurements published in patent US20130131043A1, “PYRAZOLE COMPOUNDS AS JAK INHIBITORS” (priority 2010, published 2013).

Tests used:
JAK2 = target: T1, JAK2 (Homo sapiens, UniProt O60674); assay: Kinobeads assay, JAK2 (competition binding in cell lysate, dot blot detection); conditions: mixed Molt4/Ramos lysate
T1 construct: endogenous in cells; host or cells: Molt4 (ATCC CRL-1582) and Ramos (ATCC CRL-1596) cell lysate; mixed Molt4/Ramos lysate 1:2
Experimental: (§1) The compounds of the present invention as described in the previous examples were tested in a Kinobeads™ assay as described for ZAP-70 (WO-A 2007/137867). Briefly, test compounds (at various concentrations) and the affinity matrix with the immobilized aminopyrido-pyrimidine ligand 24 were added to cell lysate aliquots and allowed to bind to the proteins in the lysate sample. After the incubation time the beads with captured proteins were separated from the lysate. Bound proteins were then eluted and the presence of JAK2 and JAK3 was detected and quantified using specific antibodies in a dot blot procedure and the Odyssey infrared detection system. Dose response curves for individual kinases were generated and IC50 values calculated. Kinobeads™ assays for ZAP-70 (WO-A 2007/137867) and for kinase selectivity profiling (WO-A 2006/134056) have been previously described.
(§2) 5×DP buffer: 250 mM Tris-HCl pH 7.4, 25% Glycerol, 7.5 mM MgCl2, 750 mM NaCl, 5 mM Na3VO4; filter the 5×DP buffer through a 0.22 μm filter and store in aliquots at −80° C. The 5×DP buffer is diluted with H2O to 1×DP buffer containing 1 mM DTT and 25 mM NaF.
(§3) Stock solutions of test compounds were prepared in DMSO. In a 96 well plate 30 μL solution of diluted test compounds at 5 mM in DMSO were prepared. Starting with this solution a 1:3 dilution series (9 steps) was prepared. For control experiments (no test compound) a buffer containing 2% DMSO was used.
(§4) Molt4 cells (ATCC catalogue number CRL-1582) and Ramos cells (ATCC catalogue number CRL-1596) were grown in 1 L Spinner flasks (Integra Biosciences, #182101) in suspension in RPMI 1640 medium (Invitrogen, #21875-034) supplemented with 10% Fetal Bovine Serum (Invitrogen) at a density between 0.15×10^6 and 1.2×10^6 cells/mL. Cells were harvested by centrifugation, washed once with 1×PBS buffer (Invitrogen, #14190-094) and cell pellets were frozen in liquid nitrogen and subsequently stored at −80° C. Cells were homogenized in a Potter S homogenizer in lysis buffer: 50 mM Tris-HCl, 0.8% NP40, 5% glycerol, 150 mM NaCl, 1.5 mM MgCl2, 25 mM NaF, 1 mM sodium vanadate, 1 mM DTT, pH 7.5. One complete EDTA-free tablet (protease inhibitor cocktail, Roche Diagnostics, 1873580) per 25 mL buffer was added. The material was dounced 10 times using a mechanized POTTER S, transferred to 50 mL falcon tubes, incubated for 30 minutes on ice and spun down for 10 minutes at 20,000 g at 4° C. (10,000 rpm in Sorvall SLA600, precooled). The supernatant was transferred to an ultracentrifuge (UZ)-polycarbonate tube (Beckmann, 355654) and spun for 1 hour at 100.000 g at 4° C. (33.500 rpm in Ti50.2, precooled). The supernatant was transferred again to a fresh 50 mL falcon tube, the protein concentration was determined by a Bradford assay (BioRad) and samples containing 50 mg of protein per aliquot were prepared. The samples were immediately used for experiments or frozen in liquid nitrogen and stored frozen at −80° C.
(§5) Cell lysate (approximately 50 mg protein per plate) was thawed in a water bath at room temperature and then stored on ice. To the thawed cell lysate 1×DP 0.8% NP40 buffer containing protease inhibitors (1 tablet for 25 mL buffer; EDTA-free protease inhibitor cocktail; Roche Diagnostics 1873580) was added in order to reach a final protein concentration of 10 mg/mL total protein. The diluted cell lysate was stored on ice. Mixed Molt4/Ramos lysate was prepared by combining one volume of Molt4 lysate and two volumes of Ramos lysate (ratio 1:2).
(§6) Plates were sealed and incubated for 3 hours in a cold room on a plate shaker (Heidolph tiramax 1000) at 750 rpm. Afterwards the plate was washed 3 times with 230 μL washing buffer (1×DP 0.4% NP40). The filter plate was placed on top of a collection plate (Greiner bio-one, PP-microplate 96 well V-shape, 65120) and the beads were then eluted with 20 μL of sample buffer (100 mM Tris, pH 7.4, 4% SDS, 0.00025% bromophenol blue, 20% glycerol, 50 mM DTT). […]

JAK3 = target: T2, JAK3 (Homo sapiens, UniProt P52333); assay: Kinobeads assay, JAK3 (competition binding in cell lysate, dot blot detection); conditions: mixed Molt4/Ramos lysate
T2 construct: endogenous in cells; host or cells: Molt4 (ATCC CRL-1582) and Ramos (ATCC CRL-1596) cell lysate; mixed Molt4/Ramos lysate 1:2
T2 sequence (P52333 1-1124): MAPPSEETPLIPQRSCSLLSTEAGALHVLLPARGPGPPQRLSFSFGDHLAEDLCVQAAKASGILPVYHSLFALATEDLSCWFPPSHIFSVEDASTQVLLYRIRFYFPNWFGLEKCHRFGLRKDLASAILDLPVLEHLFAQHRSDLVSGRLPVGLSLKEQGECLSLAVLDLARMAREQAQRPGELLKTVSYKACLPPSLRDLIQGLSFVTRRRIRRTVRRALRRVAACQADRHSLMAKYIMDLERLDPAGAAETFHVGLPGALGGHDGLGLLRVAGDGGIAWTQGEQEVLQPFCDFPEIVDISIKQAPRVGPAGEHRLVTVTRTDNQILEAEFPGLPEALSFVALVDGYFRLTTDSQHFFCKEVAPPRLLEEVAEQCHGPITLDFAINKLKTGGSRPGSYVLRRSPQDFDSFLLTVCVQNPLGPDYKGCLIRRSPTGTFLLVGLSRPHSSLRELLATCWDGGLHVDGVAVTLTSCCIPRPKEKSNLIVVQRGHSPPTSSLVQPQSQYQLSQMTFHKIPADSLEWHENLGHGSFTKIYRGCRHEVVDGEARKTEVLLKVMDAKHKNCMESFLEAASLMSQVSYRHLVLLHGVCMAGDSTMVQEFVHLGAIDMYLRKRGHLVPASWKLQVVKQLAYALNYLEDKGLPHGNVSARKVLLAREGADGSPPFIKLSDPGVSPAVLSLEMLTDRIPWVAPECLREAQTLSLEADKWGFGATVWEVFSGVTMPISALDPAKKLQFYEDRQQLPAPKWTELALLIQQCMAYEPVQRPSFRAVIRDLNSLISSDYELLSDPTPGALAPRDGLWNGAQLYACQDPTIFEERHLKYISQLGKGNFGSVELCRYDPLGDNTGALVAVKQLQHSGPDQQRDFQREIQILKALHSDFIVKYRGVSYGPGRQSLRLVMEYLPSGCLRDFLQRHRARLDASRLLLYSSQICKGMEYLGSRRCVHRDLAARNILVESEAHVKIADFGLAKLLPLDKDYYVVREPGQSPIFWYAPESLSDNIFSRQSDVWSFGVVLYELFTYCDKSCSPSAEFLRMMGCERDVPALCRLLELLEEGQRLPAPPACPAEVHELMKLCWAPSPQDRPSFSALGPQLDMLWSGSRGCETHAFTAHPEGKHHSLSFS
Experimental: as §1, §2, §3, §4, §5, §6

T1 sequence (O60674 whole entry): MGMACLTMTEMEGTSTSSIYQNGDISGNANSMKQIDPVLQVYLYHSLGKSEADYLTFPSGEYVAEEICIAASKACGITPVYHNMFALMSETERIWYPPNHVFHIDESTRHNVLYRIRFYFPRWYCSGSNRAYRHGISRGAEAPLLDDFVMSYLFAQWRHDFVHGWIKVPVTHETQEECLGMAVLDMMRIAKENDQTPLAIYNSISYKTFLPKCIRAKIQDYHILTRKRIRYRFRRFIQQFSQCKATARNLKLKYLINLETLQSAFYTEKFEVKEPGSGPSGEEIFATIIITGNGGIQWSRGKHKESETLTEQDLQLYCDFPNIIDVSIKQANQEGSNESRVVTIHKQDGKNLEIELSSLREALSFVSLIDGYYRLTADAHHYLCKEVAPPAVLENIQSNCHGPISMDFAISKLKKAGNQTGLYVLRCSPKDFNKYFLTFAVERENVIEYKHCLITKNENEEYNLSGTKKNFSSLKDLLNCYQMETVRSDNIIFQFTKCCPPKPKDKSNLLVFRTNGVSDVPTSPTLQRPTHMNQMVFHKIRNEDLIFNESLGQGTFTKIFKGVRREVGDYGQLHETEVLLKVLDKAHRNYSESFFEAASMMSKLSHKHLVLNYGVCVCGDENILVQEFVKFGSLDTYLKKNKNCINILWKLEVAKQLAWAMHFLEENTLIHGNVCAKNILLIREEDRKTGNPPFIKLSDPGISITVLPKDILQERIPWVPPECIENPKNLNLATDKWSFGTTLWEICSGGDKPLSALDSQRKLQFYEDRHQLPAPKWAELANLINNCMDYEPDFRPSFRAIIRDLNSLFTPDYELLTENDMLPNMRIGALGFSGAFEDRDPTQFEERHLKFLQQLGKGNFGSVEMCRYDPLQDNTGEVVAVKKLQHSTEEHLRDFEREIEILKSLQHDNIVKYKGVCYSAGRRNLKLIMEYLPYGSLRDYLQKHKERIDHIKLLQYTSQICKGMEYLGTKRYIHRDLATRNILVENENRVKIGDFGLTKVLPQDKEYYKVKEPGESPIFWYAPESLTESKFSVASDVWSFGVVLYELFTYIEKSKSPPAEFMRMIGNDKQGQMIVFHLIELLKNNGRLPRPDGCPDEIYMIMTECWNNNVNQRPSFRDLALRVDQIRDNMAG

| SMILES | IC50 (JAK2) [nM] | IC50 (JAK3) [nM] |
| --- | --- | --- |
| CS(=O)(=O)N1CCCC(Cn2ncc3cnc(Nc4cnn(CCO)c4)nc32)C1 (stereo not drawn) [Example 39, 2-(4-((1-((1-(methylsulfonyl)piperidin-3-yl)methyl)-1H-pyrazolo[3,4-d]pyrimidin-6-yl)amino)-1H-pyrazol-1-yl)ethanol] | 1000 to 10000 | < 100 |
| Cn1cc(Nc2ncc3cnn(CC4CCNC4)c3n2)cn1 (stereo not drawn) [Example 40, N-(1-methyl-1H-pyrazol-4-yl)-1-(pyrrolidin-3-ylmethyl)-1H-pyrazolo[3,4-d]pyrimidin-6-amine] | 1000 to 10000 | 100 to 1000 |
| Cn1cc(Nc2ncc3cnn(CC4CCCN(CCC#N)C4)c3n2)cn1 (stereo not drawn) [Example 41, 3-(3-((6-((1-methyl-1H-pyrazol-4-yl)amino)-1H-pyrazolo[3,4-d]pyrimidin-1-yl)methyl)piperidin-1-yl)propanenitrile] | 1000 to 10000 | < 100 |
| CCS(=O)(=O)N1CCC(Cn2ncc3cnc(Nc4cnn(C)c4)nc32)C1 (stereo not drawn) [Example 42, 1-((1-(ethylsulfonyl)pyrrolidin-3-yl)methyl)-N-(1-methyl-1H-pyrazol-4-yl)-1H-pyrazolo[3,4-d]pyrimidin-6-amine] | > 10000 | 100 to 1000 |
| Cn1cc(Nc2ncc3cnn(CC4CCN(S(=O)(=O)C5CC5)C4)c3n2)cn1 (stereo not drawn) [Example 43, 1-((1-(cyclopropylsulfonyl)pyrrolidin-3-yl)methyl)-N-(1-methyl-1H-pyrazol-4-yl)-1H-pyrazolo[3,4-d]pyrimidin-6-amine] | > 10000 | 100 to 1000 |
| Cn1cc(Nc2ncc3cnn(CC4CCCN(C(=O)OCCF)C4)c3n2)cn1 (stereo not drawn) [Example 44, 2-fluoroethyl 3-((6-((1-methyl-1H-pyrazol-4-yl)amino)-1H-pyrazolo[3,4-d]pyrimidin-1-yl)methyl)piperidine-1-carboxylate] | > 10000 | 100 to 1000 |
| COCCOC(=O)N1CCCC(Cn2ncc3cnc(Nc4cnn(C)c4)nc32)C1 (stereo not drawn) [Example 45, 2-methoxyethyl 3-((6-((1-methyl-1H-pyrazol-4-yl)amino)-1H-pyrazolo[3,4-d]pyrimidin-1-yl)methyl)piperidine-1-carboxylate] | > 10000 | 100 to 1000 |
| Cn1cc(Nc2ncc3cnn(CC4CCCN(CCS(C)(=O)=O)C4)c3n2)cn1 (stereo not drawn) [Example 46, N-(1-methyl-1H-pyrazol-4-yl)-1-((1-(2-(methylsulfonyl)ethyl)piperidin-3-yl)methyl)-1H-pyrazolo[3,4-d]pyrimidin-6-amine] | 1000 to 10000 | < 100 |
| Cn1cc(Nc2ncc3cnn(CC4CCCN(C(=O)C(F)(F)F)C4)c3n2)cn1 (stereo not drawn) [Example 47, 2,2,2-trifluoro-1-(3-((6-((1-methyl-1H-pyrazol-4-yl)amino)-1H-pyrazolo[3,4-d]pyrimidin-1-yl)methyl)piperidin-1-yl)ethanone] | 1000 to 10000 | 100 to 1000 |
| Cn1cc(Nc2ncc3cnn(CC4CCN(S(C)(=O)=O)C4)c3n2)cn1 (stereo not drawn) [Example 48, N-(1-methyl-1H-pyrazol-4-yl)-1-((1-(methylsulfonyl)pyrrolidin-3-yl)methyl)-1H-pyrazolo[3,4-d]pyrimidin-6-amine] | > 10000 | 100 to 1000 |
| Cn1cc(Nc2ncc3cnn(CC4CN(CCC#N)C4)c3n2)cn1 [Example 49, 3-(3-((6-((1-methyl-1H-pyrazol-4-yl)amino)-1H-pyrazolo[3,4-d]pyrimidin-1-yl)methyl)azetidin-1-yl)propanenitrile] | > 10000 | 100 to 1000 |
| CCNC(=O)N1CCCC(Cn2ncc3cnc(Nc4cnn(C)c4)nc32)C1 (stereo not drawn) [Example 51, N-ethyl-3-((6-((1-methyl-1H-pyrazol-4-yl)amino)-1H-pyrazolo[3,4-d]pyrimidin-1-yl)methyl)piperidine-1-carboxamide] | 1000 to 10000 | < 100 |
| Cn1cc(Nc2ncc3cnn(CC4CCCN(C(=O)NC5CC5)C4)c3n2)cn1 (stereo not drawn) [Example 52, N-cyclopropyl-3-((6-((1-methyl-1H-pyrazol-4-yl)amino)-1H-pyrazolo[3,4-d]pyrimidin-1-yl)methyl)piperidine-1-carboxamide] | 1000 to 10000 | < 100 |
| Cn1cc(Nc2ncc3cnn(CC4CCN(CCC#N)C4)c3n2)cn1 (stereo not drawn) [Example 53, 3-(3-((6-((1-methyl-1H-pyrazol-4-yl)amino)-1H-pyrazolo[3,4-d]pyrimidin-1-yl)methyl)pyrrolidin-1-yl)propanenitrile] | 1000 to 10000 | < 100 |
| Cn1cc(Nc2ncc3cnn(CC4CCCN(CC#N)C4)c3n2)cn1 (stereo not drawn) [Example 54, 2-(3-((6-((1-methyl-1H-pyrazol-4-yl)amino)-1H-pyrazolo[3,4-d]pyrimidin-1-yl)methyl)piperidin-1-yl)acetonitrile] | 1000 to 10000 | < 100 |
| CCN1CCCC(Cn2ncc3cnc(Nc4cnn(C)c4)nc32)C1 (stereo not drawn) [Example 55, 1-((1-ethylpiperidin-3-yl)methyl)-N-(1-methyl-1H-pyrazol-4-yl)-1H-pyrazolo[3,4-d]pyrimidin-6-amine] | 1000 to 10000 | < 100 |
| CSCCC(=O)N1CCCC(Cn2ncc3cnc(Nc4cnn(CC(F)F)c4)nc32)C1 (stereo not drawn) [Example 56, 1-(3-((6-((1-(2,2-difluoroethyl)-1H-pyrazol-4-yl)amino)-1H-pyrazolo[3,4-d]pyrimidin-1-yl)methyl)piperidin-1-yl)-3-(methylthio)propan-1-one] | > 10000 | 100 to 1000 |
| N#CCCN1CCCC(Cn2ncc3cnc(Nc4cnn(CC(F)F)c4)nc32)C1 (stereo not drawn) [Example 57, 3-(3-((6-((1-(2,2-difluoroethyl)-1H-pyrazol-4-yl)amino)-1H-pyrazolo[3,4-d]pyrimidin-1-yl)methyl)piperidin-1-yl)propanenitrile] | > 10000 | < 100 |
